# Measurements as given in US11279703B2, “Fused pyrimidine compounds as BRD4 and JAK2 dual inhibitors and methods for use thereof” (APTOSE BIOSCIENCES INC., priority 2016, dated 2022).
# Target: BRD4-BD1 (Homo sapiens (Human), UniProt O60885)
# Assay: AlphaLisa bromodomain binding assay, BRD4-BD1
# Conditions: Table 1; read-out: BRD4 IC50
# Text: An AlphaLisa assay was used to observe bromodomain binding and measure IC50s for the compounds disclosed herein. An AlphaLisa assay is a bead-based assay used to detect interactions between bromodomains and polyacetylated histone peptides. Donor and acceptor beads bound to target and ligand are brought into proximity by this protein-protein interaction.
# Equipment Required • 1. […] Plate centrifuge • 3. Plate shaker • 4. […] Single channel and multi-channel pipettes • 6. Microplate reader (Pherastar)
# Stock and Final Assay Concentrations (FAC) • 1. All reference and test compounds are made at a concentration of 10 mM in DMSO. Compounds are serially diluted in DMSO and a FAC starting from 10 μM to 10 point 3 fold serial dilutions is arrived. FAC of DMSO is 1%. • 2. Enzyme stock and FAC
# Biotinylated substrate (Acetylated histone H4, biotinylated substrate—cat no. AS64989-025, Anaspec) stock and FAC
# • 4. Acceptor and donor beads stock and FAC
# Buffers • For the enzyme and substrate dilution following buffer is used (for 50 ml) • HEPES: 50 mM 2.5 ml • NaCl: 25 mM 1.25 ml • DTT: 10 mM 0.05 ml • BSA: 0.1% 0.05 g • MilliQ water: 45.7 ml • For dilution of acceptor and donor beads AlphaLISA 5× epigenetics Buffer Perkin Elmer (Cat: AL008C) is used at 1× concentration.
# Procedure • 1. […] Tap the plate gently • 3. […] Cover with plate sealer • 5. […] Incubate the plate at room temperature for 10 minutes • 7. Add 10 μl of the substrate • 8. Cover with plate sealer • 9. […] Cover with plate sealer • 14. […] Cover with plate sealer • 18.
# The percent inhibition is calculated in the excel analysis template and the IC50 values are subsequently determined using a sigmoidal dose-response curve (variable slope) using GraphPad Prism® 5 software.
row,SMILES,IC50 [nM]
1,CN1CCC(NC(=O)c2ccc(Nc3ncc4ccn(-c5ccc(F)c(NS(=O)(=O)C(C)(C)C)c5)c4n3)cc2F)CC1 [drawing 47],94
2,CN(C)C1CCN(c2ccc(Nc3ncc4ccn(-c5ccc(F)c(NS(=O)(=O)C(C)(C)C)c5)c4n3)cc2F)CC1 [drawing 48],63
3,CC(C)(C)S(=O)(=O)Nc1cccc(Nc2nc(NC3CCNCC3)nc3sccc23)c1 [drawing 49],94
4,CC(C)(C)S(=O)(=O)Nc1cc(-n2ccc3cnc(Nc4ccc(N5CCNCC5)c(F)c4)nc32)ccc1F [drawing 50],6

# Same assay, conditions: Table 2; read-out: BRD4 IC50
row,SMILES,IC50 [nM]
1,CC(C)(C)S(=O)(=O)N1CCc2ccc(Nc3nc(NCC4CCNCC4)nc4sccc34)cc21 [drawing 56],1000
2,CN1CCC(Nc2nc(-n3ccc(C(=O)NC4CC4)c3)c3ccsc3n2)CC1 [drawing 59],450
3,O=C(NC1CC1)c1ccn(-c2nc(NC3CCNCC3)nc3sccc23)c1 [drawing 60],399

# Other lines, results leading:
row,IC50 [nM],SMILES
1,3200,CC(C)(C)S(=O)(=O)N1CCc2ccc(Nc3nc(NC4CCOC4)nc4sccc34)cc21 (centres unmarked)
2,94,CC(C)(C)S(=O)(=O)Nc1cccc(Nc2nc(NC3CCNCC3)nc3sccc23)c1 [drawing 51]
3,388,CN1CCN(c2ccc(Nc3nc(Nc4cccc(NS(=O)(=O)C(C)(C)C)c4)c4ccsc4n3)cc2)CC1 [drawing 52]
4,1200,CC(C)(C)S(=O)(=O)Nc1cccc(Nc2nc(NCC3CCNCC3)nc3sccc23)c1 [drawing 53]
5,1700,CC(C)(C)S(=O)(=O)Nc1cccc(Nc2nc(NC3CCNC3)nc3sccc23)c1 (centres unmarked) [drawing 54]
6,160,CN1CCC(Nc2nc(Nc3ccc4c(c3)N(S(=O)(=O)C(C)(C)C)CC4)c3ccsc3n2)CC1 [drawing 55]
7,2600,CC(C)(C)S(=O)(=O)N1CCc2ccc(Nc3nc(NC4CCNC4)nc4sccc34)cc21 (centres unmarked) [drawing 58]

# Same assay, conditions: Table 5; read-out: BRD4 IC50
row,SMILES,IC50 [nM]
1,CN1CCN(c2ccc(Nc3ncc4ccn(-c5cccc(NS(=O)(=O)C(C)(C)C)c5)c4n3)cc2)CC1 [drawing 73],220

# Same assay, conditions: Table 6; read-out: BRD4(1) IC50
row,SMILES,IC50 [nM]
1,CNc1ncc2c(-c3cccc(-c4c(C)noc4C)c3)c[nH]c2n1,10000
2,Cc1noc(C)c1-c1cccc(-c2c[nH]c3nc(N4CCN(C)CC4)ncc23)c1,7190
3,O=C1NCCc2c1ccn2-c1cnc(Nc2ccccc2)nc1,1780
4,COc1ccc(Nc2ncc(-n3ccc4c3CCNC4=O)cn2)cc1,9740
5,O=C1NCCc2c1ccn2-c1cnc(Nc2ccc(F)cc2)nc1,11200
6,CC1=NCC(C)=C1C1CCCC(c2c[nH]c3nc(N4CCNCC4)ncc23)C1 (centres unmarked),4060
7,Cc1noc(C)c1-c1ccc2nc(N)sc2c1,4890
8,CC(C)(C)S(=O)(=O)N1CCc2ccc(Nc3nc(Nc4cccnc4)nc4c3COC4)cc21,3610
9,Cc1noc(C)c1-c1cccc(-c2cn(C)c3nc(NC4CCNCC4)ncc23)c1,4400
10,CNCCNc1ncc2c(-c3cccc(-c4c(C)noc4C)c3)cn(C)c2n1,7500
11,CNCCNc1ncc2c(-c3cccc(-c4c(C)noc4C)c3)c[nH]c2n1,3230
12,CN1CCN(c2ccc(Nc3nc(Nc4ccc5c(c4)N(S(=O)(=O)C(C)(C)C)CC5)c4ccsc4n3)cc2)CC1,4560
13,CN1CCN(c2ccc(Nc3nc4c(c(Nc5ccc6c(c5)N(S(=O)(=O)C(C)(C)C)CC6)n3)COC4)cc2)CC1,2390
14,CNCCNc1ncc2cc(-c3cccc(-c4c(C)noc4C)c3)ccc2n1,1100
15,CC(C)(C)S(=O)(=O)N1CCc2ccc(Nc3nc(NC4CCNCC4)nc4c3COC4)cc21,1580
16,Cc1cnc(Nc2ccc(N3CCN(C)CC3)cc2)cc1Nc1cccc(NS(=O)(=O)C(C)(C)C)c1,6310

row,SMILES,IC50 [nM]
1,CN1CCN(c2ccc(Nc3nc4c(c(Nc5cccc(NS(=O)(=O)C(C)(C)C)c5)n3)CCNC4)cc2)CC1,3200
2,CC(C)(C)S(=O)(=O)Nc1cc(-n2ccc3cnc(Nc4ccc(N5CCNCC5)cc4)nc32)ccc1F,208
3,CN1CCN(c2ccc(Nc3ncc4ccn(-c5ccc(Cl)c(NS(=O)(=O)C6CC6)c5)c4n3)cc2)CC1,1700
4,CN1CCC(NC(=O)c2ccc(Nc3ncc4ccn(-c5cccc(NS(=O)(=O)C(C)(C)C)c5)c4n3)cc2)CC1,407
5,CN1CCC(c2ccc(Nc3ncc4ccn(-c5cccc(NS(=O)(=O)C(C)(C)C)c5)c4n3)cc2)CC1,581
6,COc1cc(Nc2ncc3ccn(-c4ccc(F)c(NS(=O)(=O)C5CC5)c4)c3n2)ccc1N1CCN(C)CC1,989
7,CC(C)(C)S(=O)(=O)Nc1cccc(-n2ccc3cnc(Nc4ccc5c(c4)CCN4CCNCC54)nc32)c1 (centres unmarked),750
8,CN1CCN2c3c(F)cc(Nc4ncc5scc(-c6cccc(NS(=O)(=O)C(C)(C)C)c6)c5n4)cc3CC2C1 (centres unmarked),1800
9,CC(C)(C)S(=O)(=O)N1CCc2ccc(Nc3nc(NCC4CCNCC4)nc4sccc34)cc21 [drawing 218],2170
10,O=C(NC1CC1)c1ccn(-c2nc(NC3CCNCC3)nc3sccc23)c1 [drawing 229],1830
11,CN1CCC(Nc2nc(-n3ccc(C(=O)NC4CC4)c3)c3ccsc3n2)CC1 [drawing 230],2200
12,Cc1cnc(Nc2ccc(N3CCN(C)CC3)c(F)c2)nc1Nc1ccc2c(c1)N(S(=O)(=O)C(C)(C)C)CC2 [drawing 235],155
13,CN1CCN(c2ccc(Nc3ncc4ccn(-c5cccc(NS(=O)(=O)C(C)(C)C)c5)c4n3)cc2)CC1 [drawing 275],242
14,CN1CCN(c2ccc(Nc3ncc4ccn(-c5cccc(NS(=O)(=O)C(C)(C)C)c5)c4n3)cc2)CC1 [drawing 288],5010
15,CNCCCOc1ccc(Nc2ncc3ccn(-c4cccc(NS(=O)(=O)C(C)(C)C)c4)c3n2)cc1F [drawing 448],337
16,CNCCCOc1ccc(Nc2ncc3ccn(-c4cccc(NS(=O)(=O)C(C)(C)C)c4)c3n2)cc1F [drawing 466],200

# Next, values leading:
row,IC50 [nM],SMILES
1,5020,CN1CCN(c2cccc(Nc3nc(Nc4cccc(NS(=O)(=O)C(C)(C)C)c4)c4ccsc4n3)c2)CC1
2,7400,CC(C)(C)S(=O)(=O)Nc1ccc(Nc2nc(NC3CCNCC3)nc3sccc23)cc1
3,376,CN1CCC(Nc2nc(Nc3cccc(NS(=O)(=O)C(C)(C)C)c3)c3ccsc3n2)CC1
4,640,CC(C)(C)S(=O)(=O)N1CCc2ccc(Nc3nc(NC4CCNCC4)nc4sccc34)cc21
5,608,CC(C)(C)S(=O)(=O)Nc1cccc(Nc2nc(NC3CCNCC3)nc3ccsc23)c1
6,2320,CN1CCC(Nc2nc3c(c(Nc4cccc(NS(=O)(=O)C(C)(C)C)c4)n2)COC3)CC1
7,2110,CN1CCC(Nc2nc(Nc3ccc4c(c3)N(S(=O)(=O)C(C)(C)C)CC4)c3sccc3n2)CC1
8,1340,Cc1cnc(NC2CCN(C)CC2)nc1Nc1cccc(NS(=O)(=O)C(C)(C)C)c1
9,318,Cc1ccc(Nc2nc(NC3CCNCC3)nc3sccc23)cc1NS(=O)(=O)C(C)(C)C
10,206,Cc1ccc(Nc2nc(NC3CCN(C)CC3)nc3sccc23)cc1NS(=O)(=O)C(C)(C)C
11,7500,CC1(C)CN(Cc2ccccc2)CCC1Nc1nc(Nc2cccc(NS(=O)(=O)C(C)(C)C)c2)c2ccsc2n1 (centres unmarked)
12,180,CN1CCC(Nc2nc(Nc3ccc(Cl)c(NS(=O)(=O)C(C)(C)C)c3)c3ccsc3n2)CC1
13,94,CC(C)(C)S(=O)(=O)Nc1cccc(Nc2nc(NC3CCNCC3)nc3sccc23)c1 [drawing 151]
14,609,CN1CCN(c2ccc(Nc3nc(Nc4cccc(NS(=O)(=O)C(C)(C)C)c4)c4ccsc4n3)cc2)CC1 [drawing 153]
15,344,CC(C)(C)S(=O)(=O)Nc1cccc(Nc2nc(NC3CCNCC3)nc3sccc23)c1 [drawing 159]
16,220,CN1CCC(Nc2nc(Nc3ccc4c(c3)N(S(=O)(=O)C(C)(C)C)CC4)c3ccsc3n2)CC1 [drawing 185]
17,526,CN1CCN(c2ccc(Nc3nc4c(c(Nc5cccc(NS(=O)(=O)C(C)(C)C)c5)n3)COC4)cc2)CC1 [drawing 188]
18,2750,CC(C)(C)S(=O)(=O)N1CCc2ccc(Nc3nc(NC4CCNC4)nc4sccc34)cc21 (centres unmarked) [drawing 217]
19,2670,CC(C)(C)S(=O)(=O)Nc1cccc(Nc2nc(NCC3CCNCC3)nc3sccc23)c1 [drawing 220]
20,2380,CC(C)(C)S(=O)(=O)Nc1cccc(Nc2nc(NC3CCNC3)nc3sccc23)c1 (centres unmarked) [drawing 222]
21,194,CC(C)(C)S(=O)(=O)Nc1cccc(Nc2nc(NC3CCNCC3)nc3sccc23)c1 [drawing 237]
